Test results taken from patent publication US9427415B2, “Methods and compositions for modifying sensorial perception” (The Procter & Gamble Company, priority 2014, dated 2016).
Values joined by “and” are separate entries in the source; they are usually repeats but may differ in a detail not shown here. Equal entries are not always repeated. Where two headings read alike, the source gives them in different places.

Legend:
human TRPA1 = biological target: T1, human TRPA1 (Homo sapiens, UniProt O75762, K186N/R3C/R58T); assay: Intracellular calcium (Fluo-4, FLIPR) activation of TRPA1 cells by GRAS compounds; type: cell-based; details: for activation at 1000 µM / activation at 100 µM: read-out: A1 activation, % of agonist value;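 as to all read-outs here: TRPA1-expressing cells, fluorescence read on a FLIPR Tetra (ex 488 nm, em 514 nm) every 2 s for 10 min after compound addition, baseline subtracted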
T1 construct: expressed in transfected cells; pcDNA3 control cells
T1 sequence (O75762 whole entry R3C/R58T/K186N): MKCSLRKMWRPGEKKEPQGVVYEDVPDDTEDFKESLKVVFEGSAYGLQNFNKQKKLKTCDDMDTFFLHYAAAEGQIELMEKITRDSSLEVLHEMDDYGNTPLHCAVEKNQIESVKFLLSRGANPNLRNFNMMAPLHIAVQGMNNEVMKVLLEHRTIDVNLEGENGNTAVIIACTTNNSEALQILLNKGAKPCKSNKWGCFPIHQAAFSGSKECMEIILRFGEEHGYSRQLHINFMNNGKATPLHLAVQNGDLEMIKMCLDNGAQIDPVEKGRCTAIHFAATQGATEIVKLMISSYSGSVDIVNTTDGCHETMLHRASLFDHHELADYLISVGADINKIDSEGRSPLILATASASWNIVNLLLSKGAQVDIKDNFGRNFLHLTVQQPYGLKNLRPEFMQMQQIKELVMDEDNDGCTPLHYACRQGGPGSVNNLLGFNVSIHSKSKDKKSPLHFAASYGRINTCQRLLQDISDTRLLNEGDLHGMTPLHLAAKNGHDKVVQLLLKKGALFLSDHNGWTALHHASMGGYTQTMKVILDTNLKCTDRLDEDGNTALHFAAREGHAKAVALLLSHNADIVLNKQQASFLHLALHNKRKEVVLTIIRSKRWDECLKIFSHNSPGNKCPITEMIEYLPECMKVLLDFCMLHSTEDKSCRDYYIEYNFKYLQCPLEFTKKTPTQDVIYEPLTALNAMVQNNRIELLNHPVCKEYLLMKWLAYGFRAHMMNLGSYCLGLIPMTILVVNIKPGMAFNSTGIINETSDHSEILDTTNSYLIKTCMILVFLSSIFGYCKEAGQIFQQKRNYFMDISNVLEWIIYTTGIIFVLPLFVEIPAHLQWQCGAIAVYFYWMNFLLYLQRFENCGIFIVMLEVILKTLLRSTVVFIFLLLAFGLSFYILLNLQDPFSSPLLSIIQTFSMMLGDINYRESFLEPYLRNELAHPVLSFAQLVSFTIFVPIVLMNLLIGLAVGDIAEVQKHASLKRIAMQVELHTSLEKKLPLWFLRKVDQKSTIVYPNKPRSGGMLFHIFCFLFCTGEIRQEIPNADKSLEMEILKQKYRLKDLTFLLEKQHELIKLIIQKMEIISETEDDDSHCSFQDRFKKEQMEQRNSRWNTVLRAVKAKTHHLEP

TRPA1V1 = assay: Intracellular calcium (Fluo-4, FLIPR) activation of TRPA1V1 cells (co-expressing TRPA1 and TRPV1) by GRAS compounds; type: cell-based, human;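 also: HEK293 cells co-expressing TRPA1 and TRPV1, fluorescence read at 488/514 nm after baseline subtraction, recorded every 2 s over 10 min, ionomycin 10 µM and buffer as controls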
[1] = Table 1(d), 1 mM, relative to AITC 30 μM
[2] = Table 1(c), 1 mM, relative to AITC 30 μM
[3] = Table 1(c), 100 μM (*), relative to AITC 30 μM
[4] = Table 1(e), 1 mM, relative to AITC 30 μM
[5] = Table 1(d), 100 μM (*), relative to AITC 30 μM

| Compound | A1V1 activation, % of agonist value (TRPA1V1; [2]) | activation at 1000 µM (human TRPA1; [2]) | also measured |
| --- | --- | --- | --- |
| CCC(=O)C=CC1C(C)=CCCC1(C)C (centres unmarked) | – | – | A1 activation, % of agonist value (human TRPA1; [1]): 97.3%; A1V1 activation, % of agonist value (TRPA1V1; [1]): 69.7% |
| 2-mercaptopropanoate | – | – | A1 activation, % of agonist value (human TRPA1; [1]): 101.5%; A1V1 activation, % of agonist value (TRPA1V1; [1]): 54.3% |
| 3-mercaptopropanoate | 41.8% | – | A1 activation, % of agonist value (human TRPA1; [2]): 42.7% |
| CC(=O)/C=C/C1C(C)=CCCC1(C)C (racemic) [(+/−)-Alpha-Ionone] | 64.21% | – | A1 activation, % of agonist value (human TRPA1; [2]): 64.62% |
| CC(C)[C@@H]1CC[C@@H](C)C[C@H]1O (racemic) [DL-Menthol] | 43.05% | – | A1 activation, % of agonist value (human TRPA1; [2]): 54.02% |
| C=C(C)C1CC=C(C)C(OC(C)=O)C1 (single isomer, unassigned; (-)) [(−)-Carvyl acetate] | 37% | – | A1 activation, % of agonist value (human TRPA1; [2]): 31.2% |
| Cc1c(C(=O)O)c(O)cc2c1C(=O)c1c(O)c(C3O[C@H](CO)[C@@H](O)[C@H](O)[C@H]3O)c(O)c(O)c1C2=O (stereo in doubt) [Carmine] | 61.54% | 66.2% | – |
| CC(S)CS (centres unmarked) [1,2-Propanedithiol] | 73.3% | – | A1 activation, % of agonist value (human TRPA1; [3]): 65.8%; A1 activation, % of agonist value (human TRPA1; [2]): 66%; A1V1 activation, % of agonist value (TRPA1V1; [3]): 65.4% |
| SCCCCCCS [1,6-Hexanedithiol] | 54% | 68.6% | – |
| O=CC1=CCCCC1 [1-Cyclohexene-1-carboxaldehyde] | 48.37% | 45.9% | – |
| C/C=C(\C)C(=O)OC(CC)CCCCC (centres unmarked) [1-Ethylhexyl Tiglate] | – | – | activation at 1000 µM (human TRPA1; [1]): 50.6%; A1V1 activation, % of agonist value (TRPA1V1; [1]): 31.87% |
| Cn1cccc1C=O [1-Methylpyrrole-2-carboxaldehyde] | 87.70% | 81.1% | – |
| CCCCCC=CC=CCO [2,4-Decadienol] | 52.2% | 48.6% | – |
| Cc1ccc(C=O)c(C)c1 [2,4-Dimethylbenzaldehyde] | 102.8% | 107% | – |
| CC=CC=CCO [2,4-Hexadienol] | 78.68% | 78% | – |
| CC=CC=CCOC(=O)CC [2,4-Hexadienyl propionate] | 91.20% | 93.2% | – |
| CCCC=CC=CC=O [2,4-Octadienal] | 82.7% | 80.9% | – |
| CC1(O)CSC(C)(O)CS1 (centres unmarked) [2,5-dimethyl-1,4-dithilane-2,5-diol] | – | – | A1 activation, % of agonist value (human TRPA1; [3]): 77.5%; A1V1 activation, % of agonist value (TRPA1V1; [3]): 87.2% |
| Cc1cccc(C)c1S [2,6-Dimethylthiophenol] | 85.5% | 84.4% | – |

| Compound | A1V1 activation, % of agonist value (TRPA1V1; [2]) | activation at 1000 µM (human TRPA1; [2]) | also measured |
| --- | --- | --- | --- |
| CC/C=C\CC/C=C/C(OCC)OCC [2,6-Nonadiene, 1,1-diethoxy-, (E,Z)-] | 74.31% | 89.3% | – |
| CC(=O)c1ccc2ccccc2c1 [2-Acetylnaphthalene] | 69.41% | 60.3% | – |
| O=C(CCl)c1ccccc1 [2-Chloroacetophenone] | 103% | – | activation at 100 µM (human TRPA1): 93.6%; activation at 1000 µM (human TRPA1): 91.4%; A1V1 activation, % of agonist value (TRPA1V1; [3]): 88.8% |
| CCCCCCCCCC=CC=O [2-Dodecenal] | – | – | activation at 1000 µM (human TRPA1; [4]): 65.5%; A1V1 activation, % of agonist value (TRPA1V1; [4]): 82.8% |
| CCC(CC)C(=O)O [2-Ethylbutyric acid] | – | – | activation at 1000 µM (human TRPA1; [1]): 67.7%; A1V1 activation, % of agonist value (TRPA1V1; [1]): 34.87% |
| Cc1ccc(CO)o1 [2-Furanmethanol, 5-methyl-] | 76.02% | 77.3% | – |
| O=C(OCCc1ccccc1)c1ccco1 [2-Furoic acid, phenethyl ester] | 145% | 155% | – |
| CC(=O)Cc1ccco1 [2-Furylacetone] | 59.5% | 60.8% | – |
| CCCCCC(=O)c1ccco1 [2-Hexanoylfuran] | 109% | 118% | – |
| CC=CC(=O)CC [2-Hexen-4-one] | – | – | activation at 1000 µM (human TRPA1; [1]): 53%; A1V1 activation, % of agonist value (TRPA1V1; [1]): 24.5% |
| CCCCCCCCCC(C)C=O (centres unmarked) [2-Methylundecanal] | – | – | activation at 100 µM (human TRPA1; [3]): 54.9%; A1V1 activation, % of agonist value (TRPA1V1; [3]): 57.3% |
| CCCCCC=CC(=O)O [2-Octenoic acid] | 61.77% | 55.9% | – |
| CC=C(C=O)c1ccccc1 [2-Phenyl-2-butenal] | – | – | activation at 1000 µM (human TRPA1): 65.8%; A1V1 activation, % of agonist value (TRPA1V1): 82.8% |
| CC(C=O)c1ccccc1 (centres unmarked) [2-Phenylpropionaldehyde] | 106.9% | 105% | – |
| CC(C)C(=O)OCC(C)c1ccccc1 (centres unmarked) [2-Phenylpropyl isobutyrate] | – | – | activation at 1000 µM (human TRPA1; [4]): 67.4%; A1V1 activation, % of agonist value (TRPA1V1; [4]): 102.3% |
| CCCCCCCCCCC=CC=O [2-Tridecenal] | 102% and 101% | – | activation at 100 µM (human TRPA1; [5]): 76.3%; A1V1 activation, % of agonist value (TRPA1V1; [5]): 43.5% |
| CC/C=C\CC/C=C/C=O [2-trans-6-cis-Nonadienal] | 81.22% | – | A1 activation, % of agonist value (human TRPA1; [2]): 77.3% |
| CC(=O)c1ccc(C)cc1C [2′,4′-Dimethylacetophenone] | – | – | activation at 1000 µM (human TRPA1; [4]): 24.4%; A1V1 activation, % of agonist value (TRPA1V1; [4]): 45.30% |
| C=C(C)CCCC(C)CCO (centres unmarked) [3,7-Dimethyl-7-octen-1-ol] | – | – | activation at 1000 µM (human TRPA1; [1]): 93.7%; A1V1 activation, % of agonist value (TRPA1V1; [1]): 70.7% |

| Compound | A1V1 activation, % of agonist value (TRPA1V1; [2]) | activation at 1000 µM (human TRPA1; [2]) | also measured |
| --- | --- | --- | --- |
| OCC(=CCc1ccco1)c1ccccc1 [3-(2-Furfuryl)-2-phenylpropenol] | – | – | A1 activation, % of agonist value (human TRPA1; [3]): 81.3%; A1V1 activation, % of agonist value (TRPA1V1; [3]): 72.4% |
| O=CC=Cc1ccco1 [3-(2-Furyl)acrolein] | 66.5% | 68.4% | – |
| CCCC(CCOC(C)=O)SC(C)=O (centres unmarked) [3-(Acetylmercapto)hexyl acetate] | – | – | activation at 1000 µM (human TRPA1; [4]): 22.3%; A1V1 activation, % of agonist value (TRPA1V1; [4]): 52.79% |
| CCCC(CCOC(C)=O)SC (centres unmarked) [3-(Methylthio)hexyl acetate] | 87.6% | 97.9% | – |
| CSCCC=O [3-(Methylthio)propionaldehyde] | – | – | activation at 1000 µM (human TRPA1; [1]): 53.8%; A1V1 activation, % of agonist value (TRPA1V1; [1]): 32.4% |
| CC(=O)c1cc(C)oc1C [3-Acetyl-2,5-dimethylfuran] | 61% | 73.5% | – |
| C=CCCN=C=S [3-Butenyl isothiocyanate] | 85.8% | 99.4% | – |
| CCCC=C1OC(=O)c2ccccc21 [3-Butylidenephthalide] | 115.4% | 119% | – |
| CCCC=CC(C)=O [3-Hepten-2-one] | – | – | activation at 1000 µM (human TRPA1; [1]): 82%; A1V1 activation, % of agonist value (TRPA1V1; [1]): 59% |
| CC1=CC(=O)CCC1 [3-Methyl-2-cyclohexen-1-one] | 94.76% | 94.5% | – |
| CC(C)CCN=C=S [3-Methylbutyl isothiocyanate] | – | – | activation at 1000 µM (human TRPA1; [4]): 61.1%; A1V1 activation, % of agonist value (TRPA1V1; [4]): 111.2% |
| CC=CC(C)=O [3-Penten-2-one] | – | – | activation at 1000 µM (human TRPA1; [1]): 64.2%; A1V1 activation, % of agonist value (TRPA1V1; [1]): 35% |
| CC1=NC(CC(C)C)SC1C (centres unmarked) [3-Thiazoline, 4,5-dimethyl-2-isobutyl-] | 138.7% | 142% | – |
| CCOc1ccc(C=O)cc1 [4-Ethoxybenzaldehyde] | – | – | activation at 1000 µM (human TRPA1; [4]): 62%; A1V1 activation, % of agonist value (TRPA1V1; [4]): 103% |
| COc1ccc(CCC(C)=O)cc1 [4-Methoxybenzylacetone] | 71.16% | 62.3% | – |
| CC(=O)OCc1ccc(C)cc1 [4-Methylbenzyl acetate] | – | – | activation at 1000 µM (human TRPA1; [4]): 58.9%; A1V1 activation, % of agonist value (TRPA1V1; [4]): 88.05% |
| C=CCCC=O [4-Pentenal] | 84.24% | 75.4% | – |
| Ammonium carbonate | 58.42% | – | – |
